In patent US20200290950A1, “ALKAMIDE COMPOUNDS AND USES THEREOF” (NORTH CAROLINA STATE UNIVERSITY, priority 2017, published 2020):

Columns and labels:
RBL-2H3 cells = test: Calcium assay, Fluo-4 (Example 3); format: cell-based, rat
Description: FIGS. 22A-22D. The alkamide fatty acid is necessary for inhibition of calcium influx. RBL-2H3 cells were plated overnight, incubated with Fluo-4 AM for 1 h, stimulated by 1 μM A23187 (FIG. 22A) or 5 ng/mL DNP-BSA (FIG. 22B) in the absence or presence of each alkamide, and fluorescence was read for 2 mins every 5 secs. Data are presented as the mean change in RFU of 4 experiments. Percent inhibition of calcium influx was calculated for A23187 (FIG. 22C) and DNP-BSA (FIG. 22D) stimulated cells at 2 mins. *P<0.05, **P<0.01, and ***P<0.001 one-way ANOVA with Dunnett's post hoc test compared to A15.
RBL-2H3 cells (1.0×10^5 cells) were incubated overnight in a 96 well black-wall clear bottom plate with or without IgE-DNP (0.1 μg/mL) at 37° C. with 5% CO2. The assay was performed using the Fluo-4 Direct™ Calcium Assay Kit according to the manufacturer's instruction. Briefly, cells were incubated with the Fluo-4 Direct calcium reagent loading solution for 30 minutes at 37° C. with 5% CO2 then 30 mins at room temperature. Prior to stimulation, the well baseline fluorescence was measured every 5 seconds over 1 minute using a BioTek Synergy HT microplate reader with 485/20 nm excitation and 528/20 nm emission filters. Cells were stimulated with 1 μM A23187 or 5 ng/mL DNP (IgE-DNP) in the absence or presence of each compound, and the fluorescence was measured every 5 seconds over 2 minutes. The change in fluorescence (ΔRT) was calculated as the sample fluorescence minus the baseline fluorescence for each well.

[1] = tested on: bone marrow derived mast cells (BMMCs); test: β-hexosaminidase degranulation assay, BMMCs; format: cell-based; details: Mus musculus, BMMC, A23187-stimulated BMMCs, 1 hr, read-out: maximum inhibition of release of β-hex
Description: FIGS. 1A-1F. A15 inhibits BMMC and RBL-2H3 cell degranulation. The structure of alkamide A15 is shown with different functional groups and carbons in the fatty acid chain labeled (FIG. 1A). BMMCs were plated and stimulated 4 hrs later with 1 μM A23187 and the indicated concentrations of A15 or vehicle only. The percent degranulation was measured after 1 hr (FIG. 1B). RBL-2H3 cells were treated with A23187 and the percent degranulation was determined 1 hr later (FIG. 1C) or every 10 min over a 1 hr time course (FIG. 1D). RBL-2H3 cells were plated and incubated for 4 hrs before the media was aspirated and replaced with media containing 1 μg/mL IgE anti-DNP. Cells were incubated overnight and washed prior to stimulation. The percent degranulation from RBL-2H3 cells was calculated after stimulation with 50 ng/mL DNP-HSA in combination with the indicated concentrations of A15 or vehicle only after 1 hr (FIG. 1E). RBL-2H3 cells were stimulated for 1 hr in Tyrode's buffer before supernatants were collected and levels of histamine were measured using a competitive inhibition EIA kit (FIG. 1F). […]
RBL-2H3 cell and BMMC degranulation was measured using a β-hexosaminidase (β-hex) activity assay. […]

[2] = molecular target: cannabinoid type 2 receptor (CB2) (Homo sapiens, UniProt P34972); details: Raduner et al., 2006; cited from earlier work
cannabinoid type 2 receptor (CB2), sequence (P34972 whole entry, species assumed): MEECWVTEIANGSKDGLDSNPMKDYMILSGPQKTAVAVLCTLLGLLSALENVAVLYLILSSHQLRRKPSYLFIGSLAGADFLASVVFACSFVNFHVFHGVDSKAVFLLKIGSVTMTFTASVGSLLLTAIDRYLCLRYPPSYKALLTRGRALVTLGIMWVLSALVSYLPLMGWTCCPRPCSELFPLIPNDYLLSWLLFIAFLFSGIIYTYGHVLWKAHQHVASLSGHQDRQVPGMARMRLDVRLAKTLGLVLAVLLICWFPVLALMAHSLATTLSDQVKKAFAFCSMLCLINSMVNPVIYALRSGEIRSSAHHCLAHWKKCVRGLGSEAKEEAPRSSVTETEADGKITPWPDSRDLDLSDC

SMILES: CCCCCCC/C=C/C=C/C(=O)NCC(C)C [A15, (2E,4E)-N-Isobutyldodeca-2,4-dienamide]
- percent inhibition of calcium influx (RBL-2H3 cells; 5 ng/mL DNP-BSA, at 2 minutes): 66%
- percent inhibition of calcium influx (RBL-2H3 cells; 1 μM A23187, at 2 minutes): 76%
- inhibition at 100 µM [1]: 83.5%
- binding to CB2 [2]: shown to bind
